Assay results taken from the supplement of paper PMC10627819.

Columns and labels:
Experiment in all cases: fitness (endpoint OD595 vs no drug) (fraction); higher = more growth
S. aureus Newman = tested on: S. aureus Newman
In short: (§1)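 Fitness compares growth at the stationary-phase transition with the robust mean of no-drug control wells, as a ratio of optical densities. The ratio is capped at 1. Wells of 384-well plates held 30 µl, or 55 µl for S. pneumoniae, inoculated at OD595 0.01. Readings at OD595 every 30 min for 14 h at 37 °C were corrected against the first reading.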

B. subtilis 168 = tested on: B. subtilis 168
In short: as §1

S. pneumoniae D39V = tested on: S. pneumoniae D39V
In short: as §1

S. aureus DSM 20231 = tested on: S. aureus DSM 20231
In short: as §1
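Further: OD595 on entry to stationary phase over no-drug wells; at most 1.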

CCCCCCCCCC(=O)N[C@@H](Cc1c[nH]c2ccccc12)C(=O)N[C@H](CC(N)=O)C(=O)N[C@@H](CC(=O)O)C(=O)N[C@@H]1C(=O)NCC(=O)N[C@@H](CCCN)C(=O)N[C@@H](CC(=O)O)C(=O)N[C@H](C)C(=O)N[C@@H](CC(=O)O)C(=O)NCC(=O)N[C@H](CO)C(=O)N[C@@H]([C@H](C)CC(=O)O)C(=O)N[C@@H](CC(=O)c2ccccc2N)C(=O)O[C@@H]1C [Daptomycin] + CC1=C(C(=O)O)N2C(=O)[C@@H](NC(=O)[C@H](N)c3ccccc3)[C@H]2SC1 [Cephalexin]
fitness
Details | first compound 0.125 µg/mL | first compound 0.25 µg/mL | first compound 0.5 µg/mL | first compound 1 µg/mL | first compound 2 µg/mL | first compound 4 µg/mL
B. subtilis 168, partner 0.125 µg/mL | 0.897 | 0.879 | 0.872 | – | – | –
B. subtilis 168, partner 0.25 µg/mL | 0.888 | 0.892 | 0.879 | – | – | –
B. subtilis 168, partner 0.5 µg/mL | 0.879 | 0.957 | 0.835 | – | – | –
S. aureus Newman, partner 0.25 µg/mL | 0.956 | 0.962 | 0.984 | – | – | –
S. aureus Newman, partner 0.5 µg/mL | 0.992 | ≥ 1 | 0.996 | – | – | –
S. aureus Newman, partner 1 µg/mL | 0.991 | ≥ 1 | ≥ 1 | – | – | –
S. pneumoniae D39V, partner 1 µg/mL | – | – | – | 0.452 | 0.479 | 0.449
S. pneumoniae D39V, partner 2 µg/mL | – | – | – | 0.065 | 0.0675 | 0.0521
S. pneumoniae D39V, partner 4 µg/mL | – | – | – | 0.0361 | 0.0644 | 0.0719

fitness, one replicate
Details | partner 0.125 µg/mL | partner 0.25 µg/mL | partner 0.5 µg/mL | partner 1 µg/mL
B. subtilis 168, first compound 0.25 µg/mL | – | – | – | 0.956
B. subtilis 168, first compound 0.5 µg/mL | – | – | – | 0.92
B. subtilis 168, first compound 1 µg/mL | – | 0.763 | 0.741 | 0.766
S. pneumoniae D39V, first compound 1 µg/mL | 0.903 | 0.898 | 0.896 | –
S. pneumoniae D39V, first compound 2 µg/mL | 0.922 | 0.857 | 0.891 | –
S. pneumoniae D39V, first compound 4 µg/mL | 0.977 | 0.878 | 0.887 | –

CCCCCCCCCC(=O)N[C@@H](Cc1c[nH]c2ccccc12)C(=O)N[C@H](CC(N)=O)C(=O)N[C@@H](CC(=O)O)C(=O)N[C@@H]1C(=O)NCC(=O)N[C@@H](CCCN)C(=O)N[C@@H](CC(=O)O)C(=O)N[C@H](C)C(=O)N[C@@H](CC(=O)O)C(=O)NCC(=O)N[C@H](CO)C(=O)N[C@@H]([C@H](C)CC(=O)O)C(=O)N[C@@H](CC(=O)c2ccccc2N)C(=O)O[C@@H]1C [Daptomycin] + CO/N=C(\C(=O)N[C@@H]1C(=O)N2C(C(=O)[O-])=C(C[N+]3(C)CCCC3)CS[C@H]12)c1csc(N)n1 [Cefepime]
fitness
Details | first compound 0.125 µg/mL | first compound 0.25 µg/mL | first compound 0.5 µg/mL | first compound 1 µg/mL | first compound 2 µg/mL | first compound 4 µg/mL
S. aureus DSM 20231, partner 0.125 µg/mL | – | – | 0.846 | 0.938 | 0.934 | –
S. aureus DSM 20231, partner 0.25 µg/mL | – | – | 0.88 | 0.89 | 0.887 | –
S. aureus DSM 20231, partner 0.5 µg/mL | – | – | 0.869 | 0.877 | 0.844 | –
S. aureus Newman, partner 0.125 µg/mL | 0.935 | 0.941 | 0.967 | – | – | –
S. aureus Newman, partner 0.25 µg/mL | 0.854 | 0.874 | 0.874 | – | – | –
S. aureus Newman, partner 0.5 µg/mL | 0.8 | 0.797 | 0.799 | – | – | –
S. pneumoniae D39V, partner 0.007 µg/mL | – | – | – | 0.917 | 0.942 | 0.476
S. pneumoniae D39V, partner 0.0078 µg/mL | – | – | – | ≥ 1 | ≥ 1 | 0.964
S. pneumoniae D39V, partner 0.014 µg/mL | – | – | – | 0.887 | 0.938 | 0.57
S. pneumoniae D39V, partner 0.0155 µg/mL | – | – | – | 0.982 | ≥ 1 | 0.965
S. pneumoniae D39V, partner 0.028 µg/mL | – | – | – | 0.813 | 0.82 | 0.48
S. pneumoniae D39V, partner 0.031 µg/mL | – | – | – | 0.584 | 0.606 | 0.599

CCCCCCCCCC(=O)N[C@@H](Cc1c[nH]c2ccccc12)C(=O)N[C@H](CC(N)=O)C(=O)N[C@@H](CC(=O)O)C(=O)N[C@@H]1C(=O)NCC(=O)N[C@@H](CCCN)C(=O)N[C@@H](CC(=O)O)C(=O)N[C@H](C)C(=O)N[C@@H](CC(=O)O)C(=O)NCC(=O)N[C@H](CO)C(=O)N[C@@H]([C@H](C)CC(=O)O)C(=O)N[C@@H](CC(=O)c2ccccc2N)C(=O)O[C@@H]1C [Daptomycin] + CO[C@@]12[C@H](COC(N)=O)C3=C(C(=O)C(C)=C(N)C3=O)N1C[C@@H]1N[C@@H]12 [Mitomycin C]
fitness
Details | first compound 0.125 µg/mL | first compound 0.25 µg/mL | first compound 0.5 µg/mL | first compound 1 µg/mL | first compound 2 µg/mL | first compound 4 µg/mL
S. aureus DSM 20231, partner 0.0156 µg/mL | – | – | 0.773 | 0.809 | 0.769 | –
S. aureus DSM 20231, partner 0.0312 µg/mL | – | – | 0.791 | 0.778 | 0.744 | –
S. aureus DSM 20231, partner 0.0625 µg/mL | – | – | 0.648 | 0.6 | 0.595 | –
S. aureus Newman, partner 0.0156 µg/mL | 0.775 | 0.778 | 0.773 | – | – | –
S. aureus Newman, partner 0.0312 µg/mL | 0.702 | 0.692 | 0.688 | – | – | –
S. aureus Newman, partner 0.0625 µg/mL | 0.57 | 0.54 | 0.545 | – | – | –
S. pneumoniae D39V, partner 0.001075 µg/mL | – | – | – | 0.897 | 0.905 | 0.94
S. pneumoniae D39V, partner 0.002 µg/mL | – | – | – | 0.771 | 0.776 | 0.739
S. pneumoniae D39V, partner 0.00215 µg/mL | – | – | – | 0.849 | 0.841 | 0.842
S. pneumoniae D39V, partner 0.004 µg/mL | – | – | – | 0.617 | 0.558 | 0.504
S. pneumoniae D39V, partner 0.0043 µg/mL | – | – | – | 0.719 | 0.723 | 0.723
S. pneumoniae D39V, partner 0.008 µg/mL | – | – | – | 0.285 | 0.307 | 0.242
